Blank lines part the entries; values can stand above or below the compound they belong to.
Tests used:
PceA (PceA–Strep) [1] = target: T1, PceA (PceA–Strep) (Sulfurospirillum multivorans, UniProt O68252); test: crystal structure, soaked crystal; assay type: binding; details: [Co(II)] state
T1 construct: C-terminal Strep-tag II, homologously produced in S. multivorans GD21 (genomic pceAB), Strep-Tactin purified; crystals from mature enzyme (Tat signal peptide removed); holo with norpseudo-B12 and two [4Fe-4S] clusters

PceA (PceA–Strep) [2] = target: T1, PceA (PceA–Strep); test: inhibition of 4-BP dehalogenation; assay type: biochemical; details: 47 nM enzyme, dark 2 min; covalent, alkylates cobamide [Co(I)], reversed by light

T1 sequence (O68252 38-501): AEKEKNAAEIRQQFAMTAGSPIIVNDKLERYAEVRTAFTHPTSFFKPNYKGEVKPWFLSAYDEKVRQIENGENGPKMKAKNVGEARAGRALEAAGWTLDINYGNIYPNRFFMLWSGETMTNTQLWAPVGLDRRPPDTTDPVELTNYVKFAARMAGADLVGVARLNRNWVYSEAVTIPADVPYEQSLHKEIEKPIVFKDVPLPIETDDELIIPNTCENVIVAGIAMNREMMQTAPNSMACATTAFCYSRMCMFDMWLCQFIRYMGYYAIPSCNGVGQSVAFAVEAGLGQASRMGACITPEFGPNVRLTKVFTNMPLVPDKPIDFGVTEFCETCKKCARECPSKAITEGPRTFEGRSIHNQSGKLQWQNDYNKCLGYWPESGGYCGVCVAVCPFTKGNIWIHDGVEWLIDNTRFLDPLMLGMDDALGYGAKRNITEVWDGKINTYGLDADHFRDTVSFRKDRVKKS

crystal structure, soaked crystal (PceA (PceA–Strep) [1]; enzyme with methoxybenzimidazolyl-norcobamide instead of norpseudo-B12): 5MAA (3-BP)
SMILES: Oc1cccc(Br)c1 [3-BP]

SMILES: Oc1cccc(Cl)c1 [3-CP]
crystal structure, soaked crystal (PceA (PceA–Strep) [1]; active site, not dehalogenated): 5M8Y (3-CP)

SMILES: Oc1ccc(Cl)cc1 [4-CP]
crystal structure, soaked crystal (PceA (PceA–Strep) [1]; active site, not dehalogenated): 5M8W (4-CP)

SMILES: Oc1ccc(I)cc1 [4-IP]
crystal structure, soaked crystal (PceA (PceA–Strep) [1]; active site, also surface groove site): 5MA2 (4-IP)

SMILES: CCCI [propyl iodide]
complete inhibition at 100 μM (PceA (PceA–Strep) [2]): complete inhibition of the PceA-mediated 4-BP dehalogenation by propyl iodide in the dark
